ChEMBL document CHEMBL3785048, “Effects of polar receptor agonists designed for the periphery on ATP-induced Ca2+release from keratinocytes” (Medchemcomm, 2016)
Active and inactive are the calls of the source. The calls are words filed in the database; no cut-off is given here.

Legend:
[1] = Distribution coefficient, logD between n-octonol and aqueous PBS buffer at pH 5.4 by LC-MS analysis detection based shake flask method; format: physicochemical; conditions: n-octanol/aqueous PBS buffer
[2] = Distribution coefficient, logD between n-octonol and aqueous MOPS buffer at pH 7.4 by LC-MS analysis detection based shake flask method; format: physicochemical; conditions: n-octanol/aqueous MOPS buffer
[3] = biological target: T1, Kappa-type opioid receptor (Homo sapiens, UniProt P41145); assay: Agonist activity at kappa opioid receptor in ATP stimulated human HaCaT cells assessed as reduction in intracellular Ca2+ release at 1 uM after 45 mins by FURA-2AM dye based luminescence spectrophotometry method; format: functional, cell-based
T1 sequence (P41145 whole entry): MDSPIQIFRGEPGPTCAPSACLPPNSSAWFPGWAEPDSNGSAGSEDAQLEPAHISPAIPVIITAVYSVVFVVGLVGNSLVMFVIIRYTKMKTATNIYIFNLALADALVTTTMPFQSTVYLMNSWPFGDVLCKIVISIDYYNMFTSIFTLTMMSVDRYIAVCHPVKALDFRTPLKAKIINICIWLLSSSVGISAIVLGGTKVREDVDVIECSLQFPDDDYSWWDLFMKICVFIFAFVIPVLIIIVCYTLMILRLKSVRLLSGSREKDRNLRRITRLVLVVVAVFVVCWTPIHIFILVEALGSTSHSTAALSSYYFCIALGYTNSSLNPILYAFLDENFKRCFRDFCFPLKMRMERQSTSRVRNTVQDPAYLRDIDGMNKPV

[4] = biological target: T1, Kappa-type opioid receptor; assay: Agonist activity at human kappa opioid receptor expressed in HEK-293 cells after 45 mins by [35S]GTP-gamma-S binding assay in presence of 10 uM of GDP; format: cell-based, HEK293
CHO-K1 [5] = assay: Selectivity index, ratio of Ki for human mu opioid receptor expressed in CHO-K1 cells to Ki for human kappa opioid receptor expressed on HEK-293 cells; format: cell-based
[6] = biological target: Sigma non-opioid intracellular receptor 1 (Cavia porcellus) (UniProt Q60492); assay: Displacement of [3H]-(+)-pentazocine from guinea pig Sigma1-receptor at 10 uM after 120 mins by liquid scintillation counting method
Sigma non-opioid intracellular receptor 1 (Cavia porcellus), sequence (Q60492 whole entry): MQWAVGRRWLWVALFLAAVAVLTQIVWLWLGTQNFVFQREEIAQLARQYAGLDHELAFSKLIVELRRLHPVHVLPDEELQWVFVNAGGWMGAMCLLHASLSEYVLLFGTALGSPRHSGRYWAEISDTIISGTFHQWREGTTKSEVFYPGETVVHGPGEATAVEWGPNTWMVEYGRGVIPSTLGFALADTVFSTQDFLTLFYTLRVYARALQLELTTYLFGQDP

Sus scrofa = organism: Sus scrofa; assay: Displacement of [3H]MK-801 from pig N-methyl D-aspartate receptor phencyclidine binding site at 10 uM after 150 min by liquid scintillation counting method
Rattus norvegicus = organism: Rattus norvegicus; assay: Displacement of [3H]DTG from rat sigma2 receptor at 10 uM after 120 mins by liquid scintillation counting method
CHO-K1 [7] = assay: Selectivity index, ratio of Ki for human mu opioid receptor expressed in CHO-K1 cells to guinea pig kappa opioid receptor; format: cell-based
[8] = biological target: T1, Kappa-type opioid receptor; assay: biochemical; format: cell-based, HEK293
Description: Displacement of [3H]Cl-977 from human kappa opioid receptor expressed on HEK-293 cells by liquid scintillation counting method

CHO-K1 [9] = assay: Selectivity index, ratio of Ki for human delta opioid receptor expressed in CHO-K1 cells to Ki for human kappa opioid receptor expressed on HEK-293 cells; format: cell-based
[10] = biological target: Delta-type opioid receptor (Homo sapiens) (UniProt P41143); assay: Displacement of [3H]deltrophine from human delta opioid receptor expressed in CHO-K1 cells at 10 uM after 150 mins by liquid scintillation counting method; format: cell-based
Delta-type opioid receptor (Homo sapiens), sequence (P41143 whole entry): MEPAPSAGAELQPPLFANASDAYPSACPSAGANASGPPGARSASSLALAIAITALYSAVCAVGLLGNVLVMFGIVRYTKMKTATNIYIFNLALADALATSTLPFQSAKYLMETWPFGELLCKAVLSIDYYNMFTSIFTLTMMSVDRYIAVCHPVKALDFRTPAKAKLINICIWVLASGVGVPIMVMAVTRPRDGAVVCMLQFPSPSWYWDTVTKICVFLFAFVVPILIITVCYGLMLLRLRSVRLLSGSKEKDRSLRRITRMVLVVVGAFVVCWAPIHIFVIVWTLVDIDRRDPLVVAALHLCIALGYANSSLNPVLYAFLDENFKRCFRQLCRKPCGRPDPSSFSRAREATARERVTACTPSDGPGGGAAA

CHO-K1 [11] = assay: Selectivity index, ratio of Ki for human delta opioid receptor expressed in CHO-K1 cells to guinea pig kappa opioid receptor; format: cell-based
Mu-type opioid receptor = Mu-type opioid receptor (Homo sapiens, UniProt P35372); assay: biochemical; format: cell-based, CHO-K1
Mu-type opioid receptor, sequence (P35372 whole entry): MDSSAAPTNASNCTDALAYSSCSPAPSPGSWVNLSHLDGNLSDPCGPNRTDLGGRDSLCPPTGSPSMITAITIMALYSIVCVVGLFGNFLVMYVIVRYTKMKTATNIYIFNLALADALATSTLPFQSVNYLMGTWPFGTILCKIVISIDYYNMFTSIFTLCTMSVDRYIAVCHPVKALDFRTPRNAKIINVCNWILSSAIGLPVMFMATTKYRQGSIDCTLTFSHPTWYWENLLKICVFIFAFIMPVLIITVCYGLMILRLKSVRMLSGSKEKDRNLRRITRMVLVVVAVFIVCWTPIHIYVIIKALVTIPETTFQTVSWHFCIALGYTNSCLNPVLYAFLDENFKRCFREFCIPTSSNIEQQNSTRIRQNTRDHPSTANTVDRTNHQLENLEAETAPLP

[12] = biological target: T1, Kappa-type opioid receptor; assay: Agonist activity at human kappa opioid receptor expressed in HEK-293 cells after 45 mins by [35S]GTP-gamma-S binding assay in presence of 10 uM of GDP relative to U-69,593; format: cell-based; conditions: HEK293
[13] = biological target: Kappa-type opioid receptor (Cavia porcellus, UniProt P41144); assay: Displacement of [3H]U-69,593 from kappa opioid receptor in guinea pig brain membarnes by liquid scintillation counting method
Kappa-type opioid receptor (Cavia porcellus, UniProt P41144), sequence (P41144 whole entry): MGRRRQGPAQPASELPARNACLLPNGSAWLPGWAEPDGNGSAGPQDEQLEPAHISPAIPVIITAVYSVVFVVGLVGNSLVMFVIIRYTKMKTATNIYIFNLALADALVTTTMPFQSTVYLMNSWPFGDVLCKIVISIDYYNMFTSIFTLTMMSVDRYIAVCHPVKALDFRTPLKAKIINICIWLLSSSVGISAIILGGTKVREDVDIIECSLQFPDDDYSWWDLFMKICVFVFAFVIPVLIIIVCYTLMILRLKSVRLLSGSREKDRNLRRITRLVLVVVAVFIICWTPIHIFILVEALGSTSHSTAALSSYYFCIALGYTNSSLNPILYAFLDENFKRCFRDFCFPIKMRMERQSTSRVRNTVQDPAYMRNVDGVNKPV

Compound	logD [1]	logD [2]	inhibition [3]	EC50 [4] [µM]	Ratio Ki (CHO-K1 [5])	inhibition [6] [%]	inhibition (Sus scrofa)	inhibition (Rattus norvegicus) [%]	Ratio Ki (CHO-K1 [7])	Ki [8] [µM]	Ratio Ki (CHO-K1 [9])	inhibition [10] [%]	Ratio Ki (CHO-K1 [11])	Ki (Mu-type opioid receptor) [µM]	Intrinsic activity [12] [%]	Ki [13] [µM]
COC(=O)N1CCN(C(=O)Cc2ccc(Cl)c(Cl)c2)C2C(N3CCCC3)CCCC21 (stereo not drawn)	0.39	1.29														
CN(C(=O)/C=C/c1ccoc1)[C@@H]1CC[C@@]2(O)[C@H]3Cc4ccc(O)c5c4[C@@]2(CCN3CC2CC2)[C@H]1O5			40%													
O=C(Cc1ccc(Cl)c(Cl)c1)N1CCNC2CCCC(N3CCC(O)C3)C21 (mixture of isomers)	-2.47	0.23														
COC(=O)N1CCN(C(=O)Cc2ccc(Cl)c(Cl)c2)C2C(N3CCC(O)C3)CCCC21 (mixture of isomers)	0.04	1.31	Active	0.079												
O=C(Cc1ccc(Cl)c(Cl)c1)N1CCN(Cc2cccnc2)C2CCCC(N3CCC(O)C3)C21 (mixture of isomers)	-0.39	1.26	Active		100	10	inactive	23	1000	0.031	100	35	1000	3.48	100	
O=C(Cc1ccc(Cl)c(Cl)c1)N1CCN(Cc2cccnc2)C2CCCC(N3CCCC3)C21 (racemic)	-0.45	1.1	Active		100	20	inactive	1	> 10000	0.022	100	40	> 10000	2.46	100	0.00013
